Data set [1] is described as follows: Ratio of drug level from brain to plasma in Sprague-Dawley rat at 200 mg/kg, po measured at 6 hrs. The data set is classed as ADME, organism-based. More on the design: dose 200 mg/kg, route oral. Particulars: brain and plasma, read-out: BPR.
Data set [2] can be described thus: Metabolic stability in rat liver microsomes assessed as compound remaining at 1 uM after 30 mins. The data set is classed as ADME, Microsome. Particulars: read-out: Stability. In general terms: Liver microsomes are a subcellular fraction often used to study metabolism.
A short description of data set [3]: Plasma concentration in Sprague-Dawley rat at 100 mg/kg, po measured at 6 hrs. The data set is classed as ADME, organism-based. More on the design: dose 100 mg/kg, route oral.
In data set [4] the target is Serine/threonine-protein kinase PLK1 (Homo sapiens, UniProt P53350). In words: Inhibition of GST-tagged Plk1 (unknown origin) assessed as inhibition of DEKTDDED phosphorylation at Thr1342 after 60 mins by TR-FRET assay. (In general: In TR-FRET formats the signal depends on donor and acceptor labels being close together.)
Serine/threonine-protein kinase PLK1, sequence (P53350 whole entry): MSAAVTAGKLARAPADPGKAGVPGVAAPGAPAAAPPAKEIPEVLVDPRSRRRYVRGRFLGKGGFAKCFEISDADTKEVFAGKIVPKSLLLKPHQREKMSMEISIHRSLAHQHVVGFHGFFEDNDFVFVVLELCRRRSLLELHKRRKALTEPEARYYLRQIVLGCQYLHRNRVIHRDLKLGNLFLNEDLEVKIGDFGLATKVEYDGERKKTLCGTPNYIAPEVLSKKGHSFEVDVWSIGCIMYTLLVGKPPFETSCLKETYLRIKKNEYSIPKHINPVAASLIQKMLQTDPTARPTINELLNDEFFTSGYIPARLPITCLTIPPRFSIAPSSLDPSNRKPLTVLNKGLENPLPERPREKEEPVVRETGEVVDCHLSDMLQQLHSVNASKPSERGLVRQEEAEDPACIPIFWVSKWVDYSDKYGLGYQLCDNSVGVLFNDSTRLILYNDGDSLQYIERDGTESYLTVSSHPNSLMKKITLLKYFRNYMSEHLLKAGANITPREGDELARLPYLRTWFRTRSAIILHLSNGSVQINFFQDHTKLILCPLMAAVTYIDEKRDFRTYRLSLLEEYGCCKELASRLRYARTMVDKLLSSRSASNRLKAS
Data set [5] in a line: Lipophilicity, log P of the compound. Particulars: octanol/water; read-out: logP. The data set is classed as physicochemical.
Data set [6] can be described thus: Metabolic stability in human liver microsomes assessed as compound remaining at 1 uM after 30 mins. The data set is classed as ADME, Microsome. Particulars: read-out: Stability.
Another data set concerns MDR1. In words: Efflux ratio of permeability across apical to basolateral side in […] MDCK cells expressing MDR1 at 5 uM after 120 mins by LC/MS/MS analysis. The data set is classed as ADME, cell-based.
Data set [7] addresses T1, Serine/threonine-protein kinase PLK2 (Homo sapiens, UniProt Q9NYY3).
Description: Inhibition of GST-tagged Plk2 (unknown origin) assessed as inhibition of DEKTDDED phosphorylation at Thr1342 after 60 mins by TR-FRET assay
Data set [8] concerns the target T1, Serine/threonine-protein kinase PLK2. The source holds these as a separate data set.
The nature of data set [9]: Drug uptake in Sprague-Dawley rat brain at 100 mg/kg, po measured at 6 hrs. Particulars: read-out: Drug uptake. The data set is classed as ADME, organism-based. More on the design: dose 100 mg/kg, route oral.
Data set [10] can be described thus: Metabolic stability in mouse liver microsomes assessed as compound remaining at 1 uM after 30 mins. Particulars: read-out: Stability. The data set is classed as ADME, Microsome.
Data set [11] is described as follows: Ratio of drug level from brain to plasma in Sprague-Dawley rat at 100 mg/kg, po measured at 6 hrs. Particulars: brain and plasma, read-out: BPR. Also on record: dose 100 mg/kg, route oral. The data set is classed as ADME, organism-based.
The next data set concerns Rattus norvegicus. In words: Inhibition of Plk2-mediated phosphorylation of alpha-synuclein at Ser129 in Sprague-Dawley rat cerebral cortex at 100 to 200 mg/kg, po measured at 6 hrs by ELISA relative to control. The data set is classed as functional. Particulars: dose mg/kg 100-200. Background: ELISA stands for enzyme-linked immunosorbent assay.
Data set [12] is described as follows: Plasma concentration in Sprague-Dawley rat at 200 mg/kg, po measured at 6 hrs. The data set is classed as ADME, organism-based. Also on record: dose 200 mg/kg, route oral.
Data set [13] is described as follows: Apparent permeability across apical to basolateral side in […] MDCK2 cells at 5 uM after 120 mins by LC/MS/MS analysis. The data set is classed as ADME, cell-based, MDCK-II. Particulars: MDCK.
Data set [14] in a line: Drug uptake in Sprague-Dawley rat brain at 200 mg/kg, po measured at 6 hrs. More on the design: dose 200 mg/kg, route oral. Particulars: read-out: Drug uptake. The data set is classed as ADME, organism-based.

The values below come from ChEMBL document CHEMBL2401733 (Bioorg Med Chem Lett, 2013).

As usually defined, the IC50 is the point on the concentration scale where inhibition reaches its midpoint. As usually defined, the logP is a log measure of how a compound divides between an organic and an aqueous phase. What is called efflux ratio is the permeability from basolateral to apical divided by that in the opposite direction, in the common usage. For orientation: Papp A→B means how fast a substance crosses the layer from the apical side.

T1 sequence (Q9NYY3 whole entry): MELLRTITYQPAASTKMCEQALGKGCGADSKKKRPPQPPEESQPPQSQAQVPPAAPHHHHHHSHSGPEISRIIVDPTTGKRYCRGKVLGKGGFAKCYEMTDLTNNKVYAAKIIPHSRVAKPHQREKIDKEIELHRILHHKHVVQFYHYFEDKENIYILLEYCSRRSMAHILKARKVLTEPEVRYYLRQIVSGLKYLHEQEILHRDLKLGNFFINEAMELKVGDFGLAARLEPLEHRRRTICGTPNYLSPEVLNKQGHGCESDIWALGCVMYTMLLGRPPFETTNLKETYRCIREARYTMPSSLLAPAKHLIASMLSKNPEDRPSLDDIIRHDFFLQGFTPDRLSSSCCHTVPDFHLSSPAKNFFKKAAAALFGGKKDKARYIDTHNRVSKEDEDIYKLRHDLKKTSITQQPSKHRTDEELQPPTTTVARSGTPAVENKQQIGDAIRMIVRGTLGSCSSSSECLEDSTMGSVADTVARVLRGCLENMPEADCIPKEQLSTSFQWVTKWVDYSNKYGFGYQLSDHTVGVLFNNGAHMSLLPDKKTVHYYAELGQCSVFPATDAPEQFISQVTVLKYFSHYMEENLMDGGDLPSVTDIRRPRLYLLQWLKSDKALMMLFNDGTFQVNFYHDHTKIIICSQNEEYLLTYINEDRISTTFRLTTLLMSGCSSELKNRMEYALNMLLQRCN

For `CC[C@@H]1C(=O)N(C)c2cnc(-n3ccnc3-c3ccc(F)cc3)nc2N1c1ccn(C)n1`, the Kp at 6 h in [1] came out at 0.28; in [11], 0.36. Moreover, the remaining at 0.5 h, 1 µM in [2] came to 26%; in [6], 63%; in [10], 25%. Further, the concentration at 6 h in [3] is 6290 ng/mL; in [9] it was 5.2 µM; in [12], 4880 ng/mL; in [14], 3.2 µM. The IC50 in [4] was 1350 nM; in data set [7], 7 nM; in data set [8], 480 nM. For the same compound, in data set [5], the logP came to 2.4. Also, in the data set with MDR1, the efflux ratio at 2 h, 5 µM turned out to be 1.1. Moreover, in the data set on Rattus norvegicus, the “inhibition (INH)” value was found to be 41%. Also, in data set [13], the Papp A→B at 2 h, 5 µM came to 18.5 ×10⁻⁶ cm/s.
